Results taken from patent US12576081B2 (MEZZION PHARMA CO., LTD., priority 2019, dated 2026).
Several values for one entry are separate records, joined by “and”; a condition that tells them apart may be missing. Identical values can stand only once.

Key:
[1] = system: adolescents with SVHD who had undergone Fontan palliation; experiment: FUEL trial, resting data; type: in vivo, human
Description: (§1) The FUEL Trial was conducted at 30 centers around the world. […] (Funded by Mezzion Pharma Co. Ltd., and conducted by the National Heart, Lung, and Blood Institute-funded Pediatric Heart Network; ClinicalTrials.gov number NCT02741115).
(§2) The primary outcome was the change in oxygen consumption at peak exercise (max or peak VO2) from baseline to the 26-week visit. Secondary exercise outcomes included change in additional measures at maximal exertion, as well as change in measures of submaximal exercise at the ventilatory anaerobic threshold (VAT). The primary outcome for clinical secondary aims included change in myocardial performance index (MPI), an echocardiographically-derived measure of systolic and diastolic ventricular function, change in log-transformed reactive hyperemia index (lnRHI), a PAT-derived measure of peripheral vascular function, and change in log-transformed serum BNP level. Safety was monitored through adverse event reports, which were collected according to a pre-specified protocol of study coordinator outreach, and through ad hoc patient and family communication with members of the study team at each site.
Individuals between the ages of 12 and 18 years (inclusive) who had undergone the Fontan procedure, who were not receiving treatment with a PDE5 inhibitor, who were ≥40 kg, and who met the minimum height requirement for cycle ergometry (≥132 cm) were eligible for enrollment.
Randomization assignments were generated by a web-based algorithm after confirmation of trial eligibility and consent.
(§3) Baseline clinical testing completed before drug initiation included a blood draw to measure brain-type natriuretic peptide (BNP) level, a cardiopulmonary exercise test (CPET) using a standardized cycle ergometer ramp protocol, a standardized echocardiogram, and an assessment of peripheral vascular function using peripheral arterial tonometry (PAT) measured by finger cuff (EndoPAT; Itamar Medical, Israel). Participants who achieved maximal effort, defined as respiratory exchange ratio (RER)≥1.10 at peak exercise during CPET, were eligible for randomization and study drug initiation. […] End-of-study clinical testing included repeat measurement of serum BNP, CPET, echocardiogram, and PAT.
A sample size of 200 participants per arm was chosen to allow for 90% power to detect a mean treatment difference in change from baseline to 26-week testing in max VO2 of 10% with a type 1 error of 0.05. The following assumption were made: a baseline standard deviation of 7.235 ml/kg/min, a correlation between max VO2 measurements of 0.33, a drop-out and incomplete testing rate of 10%, and failure to reach maximal effort at the 26-week exercise testing in 15% of participants. These assumptions were based on historical data and reflect a conservative approach to assessing within-participant correlations and failure to reach maximal effort. The primary analysis used the intention-to-treat population to evaluate the difference in the change in the primary outcome between treatment arms. This difference was assessed with an analysis of covariance (ANCOVA) with fixed factors for ventricular morphology (single left versus single right or mixed) and treatment group, with a continuous covariate of baseline max VO2. For those without data at the 26-week visit, this value was imputed as equal to the baseline value (no change). […] Secondary outcomes of continuous data points were analyzed in the manner described for the primary outcome. […]

[2] = system: adolescents with SVHD who had undergone Fontan palliation; experiment: FUEL trial, cardiopulmonary exercise test (cycle ergometer ramp protocol), peak exercise and ventilatory anaerobic threshold; type: in vivo, human
Description: as §1, §2, §3
A sample size of 200 participants per arm was chosen to allow for 90% power to detect a mean treatment difference in change from baseline to 26-week testing in max VO2 of 10% with a type 1 error of 0.05. The following assumption were made: a baseline standard deviation of 7.235 ml/kg/min, a correlation between max VO2 measurements of 0.33, a drop-out and incomplete testing rate of 10%, and failure to reach maximal effort at the 26-week exercise testing in 15% of participants. These assumptions were based on historical data and reflect a conservative approach to assessing within-participant correlations and failure to reach maximal effort. The primary analysis used the intention-to-treat population to evaluate the difference in the change in the primary outcome between treatment arms. This difference was assessed with an analysis of covariance (ANCOVA) with fixed factors for ventricular morphology (single left versus single right or mixed) and treatment group, with a continuous covariate of baseline max VO2. For those without data at the 26-week visit, this value was imputed as equal to the baseline value (no change). Secondary analyses included participants who successfully completed the protocol with measurable values at each of the secondary endpoints. Secondary outcomes of continuous data points were analyzed in the manner described for the primary outcome. In order to assess the generalizability of findings at the ventilatory anaerobic threshold, demographic and clinical characteristics were compared between participants without paired VO2 at VAT data and those comprising the remainder of the cohort.
The FUEL Trial was a Phase III clinical trial conducted at 30 centers. […] The primary outcome was the between group difference in change in oxygen consumption at peak exercise. Secondary outcomes included between group differences in changes in sub-maximal exercise at the ventilatory anaerobic threshold (VAT), the myocardial performance index (MPI), the natural log of the reactive hyperemia index (lnRHI), and serum brain-type natriuretic peptide (BNP). […]

[3] = system: adolescents with SVHD who had undergone Fontan palliation; experiment: FUEL trial, echocardiographic myocardial performance index (blood pool Doppler); type: in vivo, human; conditions: for MPI difference, Week 26 − Baseline, mean (SD): paired data, decrease shows improvement, p 0.028 vs placebo
Excerpt: Generally speaking, MPI (also referred to as the Doppler-derived index or Tei Index) is a measure of ventricular systolic and diastolic function as determined by a focused echocardiogram. It combines systolic and diastolic time intervals to assess heart function. More specifically, MPI can be used to assess ventricular performance represented by a numeric value using cardiac time intervals. This numeric value equals the sum of isovolumetric contraction time (ICT) and isovolumetric relaxation time (IRT) divided by ejection time (ET) and can be determined for either the left or right ventricle. Pellett, A. A., et al.: The Tei Index: Methodology and Disease. State Values. Echocardiography. A Jrnl. of CV Ultrasound & Allied Tech. 21(7):669-672 (2004); and Ulugay, A., Tatli E.: Myocardial performance index. Anadolu Kardiyol Derg 8(2):143-8 (April, 2008), both of which are incorporated herein by reference in their entireties. In the FUEL Trial, the MPI measured the performance of the single functioning ventricle. Thus, the MPI results from the FUEL Trial were determined by velocities obtained from blood pool Doppler assessment of the inflow and outflow tract of the functioning single ventricle. In other words, the FUEL Trial MPI was determined by measuring the cardiac time intervals using pulsed-wave Doppler velocity spectra of the ventricular inflow and outflow of the single functioning ventricle.
Echocardiograms were performed by sonographers with specific training for this protocol. The primary outcome of interest was MPI using Doppler-based measures of inflow and outflow duration. The duration of inflow into the dominant ventricle and outflow across the dominant semilunar valve were measured and used to calculate MPI using the standard formula. Tei C, Ling L H, Hodge D O, et al.: New index of combined systolic and diastolic myocardial performance: a simple and reproducible measure of cardiac—a study in normals and dilated cardiomyopathy. J Cardiol, 26(6):357-66 (1995); and Pellet A A et al.: The Tei Index Methodology and Disease State Values. Echocardiography: A Jrnl Of CV Ultrasound & Allied Tech, 21(7):669-672 (2004) Additional tissue Doppler images were obtained and used to calculate the tissue Doppler based MPI as previously described. Harada K, Tamura M, Toyono M et al.: Comparison of the right ventricular Tei index by tissue Doppler imaging to that obtained by pulsed Doppler in children without heart disease. Am J Cardiol, 90(5):566-9 (2002). Whenever possible, three measurements were made and the mean duration was used for the calculation.
as §2
Baseline clinical testing completed before drug initiation included a blood draw to measure brain-type natriuretic peptide (BNP) level, a cardiopulmonary exercise test (CPET) using a standardized cycle ergometer ramp protocol, a standardized echocardiogram, and an assessment of peripheral vascular function using peripheral arterial tonometry (PAT) measured by finger cuff (EndoPAT; Itamar Medical, Israel). […]

[4] = system: adolescents with SVHD who had undergone Fontan palliation; experiment: FUEL trial, safety and tolerability (adverse event reports); type: in vivo, human
Excerpt: as §2
The primary outcome for clinical secondary aims included the between group differences in change in myocardial performance index (MPI), an echocardiographically-derived measure of systolic and diastolic ventricular function, change in log-transformed reactive hyperemia index (lnRHI), a PAT-derived measure of peripheral vascular function, and change in log-transformed serum BNP level. Measurements for each of these secondary outcomes were performed at core labs. Safety was monitored through adverse event reports, which were collected according to a pre-specified protocol of study coordinator outreach, and through adhoc patient and family communication with members of the study team at each site.
A sample size of 200 participants per arm was chosen to allow for 90% power to detect a mean treatment difference in change from baseline to 26-week testing in peak VO2 of 10% with a type 1 error of 0.05. We assumed a baseline standard deviation of 7.235 ml/kg/min, a correlation between peak VO2 measurements of 0.33, a drop-out and incomplete testing rate of 10%, and failure to reach maximal effort at the 26-week exercise testing in 15% of participants. These assumptions were based on historical data and reflect a conservative approach to assessing within-participant correlations and failure to reach maximal effort and the analysis was performed using a two-sample, independent means t-test. The primary analysis used the intention-to-treat population to evaluate the difference in the change in the primary outcome between treatment arms. This difference was assessed with an analysis of covariance (ANCOVA) with fixed factors for ventricular morphology (single left versus single right or mixed) and treatment group, with a continuous covariate of baseline peak VO2. For those without data at the 26-week visit, this value was imputed as equal to the baseline value (no change). The alpha level was set at 0.05 with two-sided testing. All statistical analyses were performed using SAS statistical software 9.4 (SAS Institute, Inc., Cary, North Carolina). Secondary analyses included participants who successfully completed the protocol with measurable values at each of the secondary endpoints. Secondary outcomes of continuous data points were analyzed in the manner described for the primary outcome. In order to assess the generalizability of findings at the ventilatory anaerobic threshold, demographic and clinical characteristics were compared between participants without paired VO2 at VAT data and those comprising the remainder of the cohort using the Student's t-test and Fisher's exact test. Fisher's exact test was used to compare adverse events between the udenafil and placebo cohorts.

[5] = system: adolescents with Fontan physiology; conditions: cited from earlier work
[6] = 87.5 mg twice daily, baseline to week 26
[7] = baseline before drug, mean ± SD (n)

Structure (SMILES): CCCOc1ccc(S(=O)(=O)NCCC2CCCN2C)cc1-c1nc2c(CCC)nn(C)c2c(=O)[nH]1 (centres unmarked) [Udenafil, udenafil]
- Resting oxygen saturation, change ([1]; 87.5 mg twice daily, baseline to week 26, mean ± SD (n), p 0.002 vs placebo): 0.5%
- Resting diastolic blood pressure, change ([1]; 87.5 mg twice daily, baseline to week 26, mean ± SD (n), p 0.003 vs placebo): −2.9 mmHg
- Resting diastolic blood pressure, change vs placebo (in words) ([1]; baseline to 26-week testing): small but statistically significant decrease
- Resting heart rate, respiratory rate, or systolic blood pressure, change vs placebo (in words) ([1]; baseline to 26-week testing): no difference
- Resting oxygen saturation, change vs placebo (in words) ([1]; baseline to 26-week testing): small but statistically significant increase
- Peak VO2 (VO2 max), increase in percent [2, 6]: 2.8%
- VE/VCO2 at VAT, decrease in percent [2, 6]: 2.1%
- Work rate at VAT, improvement in percent [2, 6]: 5.5% and 5.2%
- VO2 at VAT, improvement in percent ([2]; 87.5 mg twice daily, baseline to week 26, paired data): 3.2%
- Anaerobic threshold oxygen consumption (VO2 at VAT), change ([2]; 87.5 mg twice daily, baseline to week 26, paired data, mean ± SD (n), p 0.023 vs placebo (p=0.012)): 30 mL/min and 33 ± 185 mL/min and 29.7 mL/min
- Peak exercise heart rate, baseline [2, 7]: 165 ± 20 (200) bpm
- Peak exercise minute ventilation, baseline [2, 7]: 71 ± 21 (199) L/min
- Peak exercise respiratory rate, baseline [2, 7]: 51 ± 11 (199) breaths/min
- Peak exercise work rate, baseline [2, 7]: 120 ± 32 (198) W
- MPI, max of the difference Week 26 − Baseline ([3]; 87.5 mg twice daily): 0.2
- MPI, median (interquartile range) of the difference Week 26 − Baseline ([3]; 87.5 mg twice daily): −0.01 (−0.11, 0.05)
- MPI, min of the difference Week 26 − Baseline ([3]; 87.5 mg twice daily): −.3
- MPI difference, Week 26 − Baseline, mean (SD) ([3]; 87.5 mg twice daily): 122: −0.02 (0.113)
- MPI difference, Week 26 − Baseline, mean (SD) ([3]; 87.5 mg twice daily, listed as udenafil): −0.02
- MPI, LS mean dif A − B (SE), baseline ([3]; udenafil minus placebo, baseline, p 0.818): −0.0 (0.018)
- MPI, LS mean dif A − B (SE), Week 26 ([3]; udenafil minus placebo, week 26, p 0.024): −0.04 (0.018)
- MPI, LS mean dif A − B (SE), difference Week 26 − Baseline ([3]; udenafil minus placebo, p 0.028): −0.03 (0.014)
- Participants who experienced a serious adverse event ([4]; human, in vivo, 26 weeks): 14
- Serious adverse events with possible, probable, or definite relationship to study drug ([4]; human, in vivo, 26 weeks): 3 events
- Adverse events more common than in the placebo group ([4]; in vivo): Headache, facial flushing, abdominal pain, epistaxis, and erection (male participants) were more common
- Priapism ([4]; in vivo): no reported episodes of priapism
- Serious adverse events related to study drug, kind ([4]; in vivo): unilateral retinal artery and vein thrombosis, transient lower extremity diplegia, and transient dyspnea
- Non-serious adverse event: increased erection, participants ([4]; male, human, in vivo, 26 weeks): 13 (11.7) n (%)
- Deaths ([4]; study cohort, 26 weeks): no deaths
- Average serum concentration ([5]; 87.5 mg twice daily compared with other tested regimens): highest average serum concentration
- Dose-limiting adverse events ([5]; 87.5 mg twice daily): not associated with dose-limiting adverse events
- Tolerability ([5]; all tested dosing regimens): tolerability at all tested dosing regimens
